Experimental data from the supplement of paper PMC4862054.

Assays:
Details in all cases: incubation time: 72 h
CAL-120 [1] = test: normalised viability (% of control), CellTiter-Blue; higher = more viable cells (about 100 = DMSO control)
Method in brief: (§1)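 After 72 h on compound-loaded 384-well plates, breast cancer cell lines received 2.5 µl CellTiter-Blue reagent for 2 h at 37 °C. Fluorescence at 560/590 nm was scaled per plate so that vehicle was 100 and a positive kill control was 0. The value stands for normalised viability at a single listed concentration of the series.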

MDA-MB-231 [2] = test: as above
Method in brief: as §1

MDA-MB-453 [3] = test: as above
Method in brief: as §1

MDA-MB-436 = test: as above
Method in brief: as §1

MDA-MB-468 [4] = test: as above
Method in brief: as §1

SK-BR-3 = test: as above
Method in brief: as §1

HCC1599 [5] = test: as above
Method in brief: as §1

DU-4475 [6] = test: as above
Method in brief: as §1

BT-474 [7] = test: as above
Method in brief: as §1

BT-549 = test: as above
Method in brief: as §1

MFM-223 [8] = test: as above
Method in brief: as §1

CAL-85-1 [9] = test: as above
Method in brief: as §1

Hs578T [10] = test: as above
Method in brief: as §1

CAL-120 [11] = test: drug sensitivity score (DSS), CellTiter-Blue viability (DSS (AUC-based score)); higher = stronger viability inhibition; extreme values may be limits of the assay
Procedure: (§2)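 DSRT with the CellTiter-Blue (resazurin reduction) viability readout, fluorescence 560/590 nm, 72 h incubation. Plates were normalised to DMSO and benzethonium chloride controls. DSS is computed from the area under the fitted dose-response curve (5 or 9 concentrations).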

MDA-MB-231 [12] = test: as above
Procedure: as §2

CAL-51 = test: as above
Procedure: as §2

HDQ-P1 = test: as above
Procedure: as §2

MDA-MB-453 [13] = test: as above
Procedure: as §2

MDA-MB-468 [14] = test: as above
Procedure: as §2

HCC1937 = test: as above
Procedure: as §2

CAL-148 = test: as above
Procedure: as §2

HCC1599 [15] = test: as above
Procedure: as §2

HCC1143 = test: as above
Procedure: as §2

DU-4475 [16] = test: as above
Procedure: as §2

BT-474 [17] = test: as above
Procedure: as §2

MFM-223 [18] = test: as above
Procedure: as §2

CAL-85-1 [19] = test: as above
Procedure: as §2

Hs578T [20] = test: as above
Procedure: as §2

Structure (SMILES) | normalised viability (CAL-120 [1]; 100 nM) | normalised viability (MDA-MB-231 [2]; 100 nM) | normalised viability (MDA-MB-453 [3]; 10 nM) | normalised viability (MDA-MB-436; 100 nM) | normalised viability (MDA-MB-468 [4]; 100 nM) | drug sensitivity score (CAL-120 [11]) | drug sensitivity score (MDA-MB-231 [12]) | drug sensitivity score (CAL-51) | drug sensitivity score (HDQ-P1) | drug sensitivity score (MDA-MB-453 [13]) | drug sensitivity score (MDA-MB-468 [14]) | drug sensitivity score (HCC1937) | drug sensitivity score (CAL-148) | drug sensitivity score (HCC1599 [15]) | drug sensitivity score (HCC1143) | drug sensitivity score (DU-4475 [16]) | drug sensitivity score (BT-474 [17]) | drug sensitivity score (MFM-223 [18]) | drug sensitivity score (CAL-85-1 [19]) | drug sensitivity score (Hs578T [20]) | other results
COc1cc2/c(=N/c3ccc(Br)cc3F)nc[nH]c2cc1OCC1CCN(C)CC1 [Vandetanib] | 98.3% | 94% | 104% | 71.3% | 93.8% | 3.15 | 6.74 | 6.07 | 14 | 3.82 | 6.11 | 0 | 0 | 0 | 0.583 | 0 | 7.12 | 8.55 | 6.73 | 3.9 | normalised viability (SK-BR-3; 100 nM): 63.8%; normalised viability (HCC1599 [5]; 100 nM): 96.3%; normalised viability (DU-4475 [6]; 10 nM): 110%; normalised viability (BT-474 [7]; 100 nM): 90.6%; normalised viability (BT-549; 100 nM): 89%; normalised viability (MFM-223 [8]; 100 nM): 112%; normalised viability (CAL-85-1 [9]; 10 nM): 104%; normalised viability (Hs578T [10]; 100 nM): 67.8%
COCC[n+]1c2c(n(Cc3cnccn3)c1C)C(=O)c1ccccc1C2=O [YM155] | 5.35% | 1.71% | 44.7% | 2.36% | 0.74% | 40.9 | 40 | 31.9 | 33.6 | 35.5 | 40.3 | 39.1 | 35.7 | 34 | 30.3 | 23.3 | 32.9 | 29.7 | 38 | 22.6 | normalised viability (SK-BR-3; 100 nM): 1.25%; normalised viability (HCC1599 [5]; 100 nM): 10%; normalised viability (DU-4475 [6]; 10 nM): 110%; normalised viability (BT-474 [7]; 100 nM): 1.04%; normalised viability (BT-549; 100 nM): 34%; normalised viability (MFM-223 [8]; 100 nM): 26.1%; normalised viability (CAL-85-1 [9]; 10 nM): 29.7%; normalised viability (Hs578T [10]; 100 nM): 47.6%
CC(C)C[C@@H](C(=O)N[C@H](C(=O)OC1CCCC1)c1ccccc1)[C@H](O)C(=O)NO [Tosedostat] | 66.8% | 72.6% | 99.1% | 96.2% | 64.6% | 12.7 | 12.5 | 4.1 | 4.23 | 15.8 | 13.2 | 14.9 | 7.49 | 0 | 7.29 | 13.4 | 0 | 8.63 | 4.66 | 2.31 | normalised viability (SK-BR-3; 100 nM): 88.7%; normalised viability (HCC1599 [5]; 100 nM): 102%; normalised viability (DU-4475 [6]; 10 nM): 79.7%; normalised viability (BT-474 [7]; 100 nM): 110%; normalised viability (BT-549; 100 nM): 72.7%; normalised viability (MFM-223 [8]; 100 nM): 79.8%; normalised viability (CAL-85-1 [9]; 10 nM): 89.4%; normalised viability (Hs578T [10]; 100 nM): 94.2%
COc1cc(OC2CCN(C)CC2)ccc1Nc1ncc2c(n1)n(C1CCCC1)c(=O)n2C [AZ 3146] | 121% | 96.1% | 88.2% | 93.5% | 106% | 0.478 | 3.65 | 8.18 | 0 | 3.31 | 0 | 0 | 4.7 | 0 | 0 | 1.56 | 0 | 0 | 1.25 | 0 | normalised viability (SK-BR-3; 100 nM): 97.3%; normalised viability (HCC1599 [5]; 100 nM): 90.1%; normalised viability (DU-4475 [6]; 10 nM): 101%; normalised viability (BT-474 [7]; 100 nM): 113%; normalised viability (BT-549; 100 nM): 85%; normalised viability (MFM-223 [8]; 100 nM): 105%; normalised viability (CAL-85-1 [9]; 10 nM): 94.8%; normalised viability (Hs578T [10]; 100 nM): 82%
O=C(/C=C/c1cccc(S(=O)(=O)Nc2ccccc2)c1)NO [Belinostat] | 66.3% | 93.7% | 95.8% | 95.3% | 88.5% | 19 | 12.5 | 10.6 | 11.8 | 22.4 | 8.06 | 12.3 | 17.1 | 14.6 | 10.3 | 15 | 11.8 | 12.7 | 12.2 | 8.1 | normalised viability (SK-BR-3; 100 nM): 65.7%; normalised viability (HCC1599 [5]; 100 nM): 82.8%; normalised viability (DU-4475 [6]; 10 nM): 109%; normalised viability (BT-474 [7]; 100 nM): 90.4%; normalised viability (BT-549; 100 nM): 91.2%; normalised viability (MFM-223 [8]; 100 nM): 96.4%; normalised viability (CAL-85-1 [9]; 10 nM): 89.7%; normalised viability (Hs578T [10]; 100 nM): 70.2%
Oc1ccc2c(c1)CC[C@H](c1ccccc1)[C@@H]2c1ccc(OCCN2CCCC2)cc1 [Lasofoxifene] | – | – | – | – | – | 0 | 0 | 0 | 0 | 0 | 0 | 0 | 0 | 0 | 0 | 0 | 0 | 0 | 0 | 0 | normalised viability (CAL-120 [1]; 10 nM): 86.9%; normalised viability (MDA-MB-231 [2]; 10 nM): 90.1%; normalised viability (MDA-MB-453 [3]; 1 nM): 108%; normalised viability (MDA-MB-436; 10 nM): 85.3%; normalised viability (MDA-MB-468 [4]; 10 nM): 87.2%; normalised viability (SK-BR-3; 10 nM): 83.2%; normalised viability (HCC1599 [5]; 10 nM): 104%; normalised viability (DU-4475 [6]; 1 nM): 98.7%; normalised viability (BT-474 [7]; 10 nM): 122%; normalised viability (BT-549; 10 nM): 113%; normalised viability (MFM-223 [8]; 10 nM): 82.8%; normalised viability (CAL-85-1 [9]; 1 nM): 94.4%; normalised viability (Hs578T [10]; 10 nM): 84.3%
